Measurements published in patent US11813304B2, “Compounds and methods for inhibiting phosphate transport” (Ardelyx, Inc., priority 2013, dated 2023).

System: HEK-293 cells
Experiment: Sodium-dependent 33P phosphate uptake in HEK-293 cells (mock, rat or human NaP2b transfected)
Type: cell-based
Conditions: 5 μM EIPA; cells not pretreated to lower their intracellular pH; 23 min at room temperature
Experimental: Experiments were performed to test the relationship between alterations in intracellular pH and the uptake of phosphate ions (Pi) in human embryonic kidney cells (HEK-293 cells).
HEK-293 cells were seeded into 96-well plates at 25,000 cells/well and cultured overnight. Cells were then transfected with either rat or human NaP2b cDNA, or were mock transfected (no DNA) using Lipofectamine 2000 (Invitrogen). Cells were allowed to approach confluence during a second overnight incubation.
An ammonium pulse procedure was used to reduce the intracellular pH from ˜7.4 to ˜6.8. Medium was aspirated from the wells, cells were washed twice with NaCl-HEPES buffer (100 mM NaCl, 50 mM HEPES, 10 mM glucose, 5 mM KCl, 2 mM CaCl2, 1 mM MgCl2, pH 7.4), then incubated for 30 min at room temperature with NH4Cl-HEPES buffer (20 mM NH4Cl, 80 mM NaCl, 50 mM HEPES, 5 mM KCl, 2 mM CaCl2, 1 mM MgCl2, pH 7.4) containing 5 μM BCECF-AM. […] The reduction in intracellular pH to approximately pH 6.8 was verified by monitoring the pH sensitive changes in BCECF fluorescence (λex 505 nm, λem 538 nm) normalized to the pH insensitive BCECF fluorescence (λex 439 nm, λem 538 nm). […]
Uptake of ^33P was measured in the presence and absence of 5 μM EIPA, a specific inhibitor of NHE1. […] Cells were lysed by addition of 20 μL 0.1% Tween 80 followed by 100 μL scintillation fluid, and counted using a TopCount (Perkin Elmer).

## CCN(c1nc(N)c(C(=O)NC(=N)N)nc1Cl)C(C)C [EIPA]
  Pi uptake (33P): small yet significant decrease
